Laboratory results from patent US12215140B2, “Method of stabilizing protein contained in specimen and solution for stabilizing protein contained in specimen” (EIKEN KAGAKU KABUSHIKI KAISHA, priority 2018, dated 2025).
Blank lines part the entries; values can stand above or below the molecule they belong to.

Biological target: hemoglobin (Homo sapiens, UniProt P68871+P69905)
Assay: Stability of hemoglobin in samples preserved at 37° C. in preservation solution containing no haptoglobin, Hb measured by latex agglutination method (Examples 8, 9 and Table 10)
Settings: arylboronic acid 0.5 mmol/L
Protocol: Preservation solutions were prepared with the addition of 40 mmol/L HEPES (pH 6.8), 0.1% BSA, 0.1% NaN3, and 0 to 2.5 mmol/L phenylboronic acid. […] Samples obtained by adding hemoglobin-added fecal specimens to the preservation solutions so that the fecal concentration would be 0.5% were preserved at 37° C. for 0, 16, 38, and 62 hours. The fecal specimens were added with hemoglobin having an amount such that the hemoglobin concentration in the samples would be about 300 μg/L. Instead of the fecal specimens to which hemoglobin was added, samples containing no fecal specimens, in which hemoglobin was added to the preservation solutions so that the hemoglobin concentration in the samples would be 300 μg/L, were similarly preserved. The hemoglobin (Hb) concentrations (μg/L) in the preserved samples were measured by the latex agglutination method using the same measurement reagent and measurement device as in Example 1.
The concentration of phenylboronic acid in the preservation solutions of Example 8 was fixed to 0.5 mmol/L, preservation solutions to which sorbitol or sucrose was further added at 10 to 250 mmol/L or trehalose, glucose, fructose, or mannitol was further added at 50 to 100 mmol/L were prepared, and testing was conducted in the same manner as in Example 8. In addition, preservation solutions to which the phenylboronic acid was added but no sugar was added were prepared, preservation solutions to which the phenylboronic acid and sugar were not added were prepared for the comparative examples, and testing was conducted in the same manner.
For comparative examples, preservation solutions to which no arylboronic acid was added were prepared, and testing was conducted in the same manner.

[1] = Feces 1, 0 h at 37° C., no sugar
[2] = Feces 1, 16 h at 37° C., no sugar
[3] = Feces 1, 38 h at 37° C., no sugar
[4] = Feces 1, 62 h at 37° C., no sugar
[5] = Feces 2, 0 h at 37° C., no sugar
[6] = Feces 2, 16 h at 37° C., no sugar
[7] = Feces 2, 38 h at 37° C., no sugar
[8] = Feces 2, 62 h at 37° C., no sugar
[9] = Feces 3, 0 h at 37° C., no sugar
[10] = Feces 3, 16 h at 37° C., no sugar
[11] = Feces 3, 38 h at 37° C., no sugar
[12] = Feces 3, 62 h at 37° C., no sugar
[13] = No feces, 0 h at 37° C., no sugar
[14] = No feces, 16 h at 37° C., no sugar
[15] = No feces, 38 h at 37° C., no sugar
[16] = No feces, 62 h at 37° C., no sugar

hemoglobin, sequence (P69905 2-142): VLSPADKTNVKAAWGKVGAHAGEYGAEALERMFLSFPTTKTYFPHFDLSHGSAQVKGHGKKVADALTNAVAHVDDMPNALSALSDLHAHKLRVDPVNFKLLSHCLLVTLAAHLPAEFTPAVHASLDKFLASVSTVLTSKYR
hemoglobin, sequence (P68871 2-147): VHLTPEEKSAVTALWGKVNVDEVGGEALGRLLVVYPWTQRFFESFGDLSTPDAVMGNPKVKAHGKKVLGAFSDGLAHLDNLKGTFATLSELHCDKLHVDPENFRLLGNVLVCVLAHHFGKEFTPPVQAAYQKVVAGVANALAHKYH

Hb concentration [1]: 296 µg/L
Recovery ratio with respect to Hb after 0 days [1]: 100%
Hb concentration [2]: 163 µg/L
Recovery ratio with respect to Hb after 0 days [2]: 55%
Hb concentration [3]: 68 µg/L
Recovery ratio with respect to Hb after 0 days [3]: 23%
Hb concentration [4]: 20 µg/L
Recovery ratio with respect to Hb after 0 days [4]: 7%
Hb concentration (Feces 1, 0 h at 37° C.): 296 µg/L
Recovery ratio with respect to Hb after 0 days (Feces 1, 0 h at 37° C.): 100%
Hb concentration (Feces 1, 16 h at 37° C.): 163 µg/L
Recovery ratio with respect to Hb after 0 days (Feces 1, 16 h at 37° C.): 55%
Hb concentration (Feces 1, 38 h at 37° C.): 68 µg/L
Recovery ratio with respect to Hb after 0 days (Feces 1, 38 h at 37° C.): 23%
Hb concentration (Feces 1, 62 h at 37° C.): 20 µg/L
Recovery ratio with respect to Hb after 0 days (Feces 1, 62 h at 37° C.): 7%
Hb concentration [5]: 288 µg/L
Recovery ratio with respect to Hb after 0 days [5]: 100%
Hb concentration [6]: 90 µg/L
Recovery ratio with respect to Hb after 0 days [6]: 31%
Hb concentration [7]: 8 µg/L
Recovery ratio with respect to Hb after 0 days [7]: 3%
Hb concentration [8]: 0 µg/L
Recovery ratio with respect to Hb after 0 days [8]: 0%
Hb concentration (Feces 2, 0 h at 37° C.): 288 µg/L
Recovery ratio with respect to Hb after 0 days (Feces 2, 0 h at 37° C.): 100%
Hb concentration (Feces 2, 16 h at 37° C.): 90 µg/L
Recovery ratio with respect to Hb after 0 days (Feces 2, 16 h at 37° C.): 31%
Hb concentration (Feces 2, 38 h at 37° C.): 8 µg/L
Recovery ratio with respect to Hb after 0 days (Feces 2, 38 h at 37° C.): 3%
Hb concentration (Feces 2, 62 h at 37° C.): 0 µg/L
Recovery ratio with respect to Hb after 0 days (Feces 2, 62 h at 37° C.): 0%
Hb concentration [9]: 281 µg/L
Recovery ratio with respect to Hb after 0 days [9]: 100%
Hb concentration [10]: 95 µg/L
Recovery ratio with respect to Hb after 0 days [10]: 34%
Hb concentration [11]: 5 µg/L
Recovery ratio with respect to Hb after 0 days [11]: 2%
Hb concentration [12]: 0 µg/L
Recovery ratio with respect to Hb after 0 days [12]: 0%
Hb concentration (Feces 3, 0 h at 37° C.): 281 µg/L
Recovery ratio with respect to Hb after 0 days (Feces 3, 0 h at 37° C.): 100%
Hb concentration (Feces 3, 16 h at 37° C.): 95 µg/L
Recovery ratio with respect to Hb after 0 days (Feces 3, 16 h at 37° C.): 34%
Hb concentration (Feces 3, 38 h at 37° C.): 5 µg/L
Recovery ratio with respect to Hb after 0 days (Feces 3, 38 h at 37° C.): 2%
Hb concentration (Feces 3, 62 h at 37° C.): 0 µg/L
Recovery ratio with respect to Hb after 0 days (Feces 3, 62 h at 37° C.): 0%
Hb concentration [13]: 299 µg/L
Recovery ratio with respect to Hb after 0 days [13]: 100%
Hb concentration [14]: 279 µg/L
Recovery ratio with respect to Hb after 0 days [14]: 94%
Hb concentration [15]: 264 µg/L
Recovery ratio with respect to Hb after 0 days [15]: 88%
Hb concentration [16]: 266 µg/L
Recovery ratio with respect to Hb after 0 days [16]: 89%
Hb concentration (No feces, 0 h at 37° C.): 299 µg/L
Recovery ratio with respect to Hb after 0 days (No feces, 0 h at 37° C.): 100%
Hb concentration (No feces, 16 h at 37° C.): 279 µg/L
Recovery ratio with respect to Hb after 0 days (No feces, 16 h at 37° C.): 94%
Hb concentration (No feces, 38 h at 37° C.): 264 µg/L
Recovery ratio with respect to Hb after 0 days (No feces, 38 h at 37° C.): 88%
Hb concentration (No feces, 62 h at 37° C.): 266 µg/L
Recovery ratio with respect to Hb after 0 days (No feces, 62 h at 37° C.): 89%
Structure (SMILES): O=C(O)c1cccc(B(O)O)c1 [3C-PBA, 3-carboxyphenylboronic acid]

Hb concentration [1]: 298 µg/L
Recovery ratio with respect to Hb after 0 days [1]: 100%
Hb concentration [2]: 171 µg/L
Recovery ratio with respect to Hb after 0 days [2]: 57%
Hb concentration [3]: 79 µg/L
Recovery ratio with respect to Hb after 0 days [3]: 26%
Hb concentration [4]: 25 µg/L
Recovery ratio with respect to Hb after 0 days [4]: 8%
Hb concentration (Feces 1, 0 h at 37° C.): 298 µg/L
Recovery ratio with respect to Hb after 0 days (Feces 1, 0 h at 37° C.): 100%
Hb concentration (Feces 1, 16 h at 37° C.): 171 µg/L
Recovery ratio with respect to Hb after 0 days (Feces 1, 16 h at 37° C.): 57%
Hb concentration (Feces 1, 38 h at 37° C.): 79 µg/L
Recovery ratio with respect to Hb after 0 days (Feces 1, 38 h at 37° C.): 26%
Hb concentration (Feces 1, 62 h at 37° C.): 25 µg/L
Recovery ratio with respect to Hb after 0 days (Feces 1, 62 h at 37° C.): 8%
Hb concentration [5]: 295 µg/L
Recovery ratio with respect to Hb after 0 days [5]: 100%
Hb concentration [6]: 95 µg/L
Recovery ratio with respect to Hb after 0 days [6]: 32%
Hb concentration [7]: 11 µg/L
Recovery ratio with respect to Hb after 0 days [7]: 4%
Hb concentration [8]: 0 µg/L
Recovery ratio with respect to Hb after 0 days [8]: 0%
Hb concentration (Feces 2, 0 h at 37° C.): 295 µg/L
Recovery ratio with respect to Hb after 0 days (Feces 2, 0 h at 37° C.): 100%
Hb concentration (Feces 2, 16 h at 37° C.): 95 µg/L
Recovery ratio with respect to Hb after 0 days (Feces 2, 16 h at 37° C.): 32%
Hb concentration (Feces 2, 38 h at 37° C.): 11 µg/L
Recovery ratio with respect to Hb after 0 days (Feces 2, 38 h at 37° C.): 4%
Hb concentration (Feces 2, 62 h at 37° C.): 0 µg/L
Recovery ratio with respect to Hb after 0 days (Feces 2, 62 h at 37° C.): 0%
Hb concentration [9]: 295 µg/L
Recovery ratio with respect to Hb after 0 days [9]: 100%
Hb concentration [10]: 106 µg/L
Recovery ratio with respect to Hb after 0 days [10]: 36%
Hb concentration [11]: 9 µg/L
Recovery ratio with respect to Hb after 0 days [11]: 3%
Hb concentration [12]: 0 µg/L
Recovery ratio with respect to Hb after 0 days [12]: 0%
Hb concentration (Feces 3, 0 h at 37° C.): 295 µg/L
Recovery ratio with respect to Hb after 0 days (Feces 3, 0 h at 37° C.): 100%
Hb concentration (Feces 3, 16 h at 37° C.): 106 µg/L
Recovery ratio with respect to Hb after 0 days (Feces 3, 16 h at 37° C.): 36%
Hb concentration (Feces 3, 38 h at 37° C.): 9 µg/L
Recovery ratio with respect to Hb after 0 days (Feces 3, 38 h at 37° C.): 3%
Hb concentration (Feces 3, 62 h at 37° C.): 0 µg/L
Recovery ratio with respect to Hb after 0 days (Feces 3, 62 h at 37° C.): 0%
Hb concentration [13]: 306 µg/L
Recovery ratio with respect to Hb after 0 days [13]: 100%
Hb concentration [14]: 282 µg/L
Recovery ratio with respect to Hb after 0 days [14]: 92%
Hb concentration [15]: 263 µg/L
Recovery ratio with respect to Hb after 0 days [15]: 86%
Hb concentration [16]: 264 µg/L
Recovery ratio with respect to Hb after 0 days [16]: 86%
Hb concentration (No feces, 0 h at 37° C.): 306 µg/L
Recovery ratio with respect to Hb after 0 days (No feces, 0 h at 37° C.): 100%
Hb concentration (No feces, 16 h at 37° C.): 282 µg/L
Recovery ratio with respect to Hb after 0 days (No feces, 16 h at 37° C.): 92%
Hb concentration (No feces, 38 h at 37° C.): 263 µg/L
Recovery ratio with respect to Hb after 0 days (No feces, 38 h at 37° C.): 86%
Hb concentration (No feces, 62 h at 37° C.): 264 µg/L
Recovery ratio with respect to Hb after 0 days (No feces, 62 h at 37° C.): 86%
Structure (SMILES): OB(O)c1cccc(O)c1 [3H-PBA, 3-hydroxyphenylboronic acid]
